From patent US5846720A, “Methods of determining chemicals that modulate expression of genes associated with cardiovascular disease” (Oncogene Science, Inc., priority 1996, dated 1998) come the findings set out here.

The test system of one assay is G-CSF mRNA. Kind of assay: S1 nuclease protection, G-CSF mRNA. In kind it is cell-based, human. Here is the method: (§1) S1 Nuclease protection assays were carried out as described in reference 118.
(§2) To further confirm, that compounds that had been identified in a luciferase expression assay using a G-CSF specific reporter cell line would be active in inducing transcription of the endogenous G-CSF gene, cells from the parental cell line 5637 used to construct the reporter cell line were incubated with cycloheximide (25 ug/ml), DMSO (0.5%,solvent control) and low, medium and high concentrations of the compounds 542 (10, 50, 250 μM),1255 (20, 100, 500 uM), 1793(0.25, 1.2, 6.25 μM) and 1904 (20, 100 uM) for 18 hours. RNA was extracted and the concentration of G-CSF, GM-CSF and gamma-actin mRNA was determined by the S1 protection method as described in above. The positions of G-CSF GM-CSF and gamma-actin specific protected fragments are indicated (G, GM, A) at the left side of the gel (FIG. 37).

Another assay concerns GM-CSF mRNA. Briefly: S1 nuclease protection, GM-CSF mRNA. In kind it is cell-based, human. Particulars: 5637 cells, 18 hours. Here is the method:
as §1, §2

In assay [1] the test system is 5637 bladder carcinoma cells. Briefly: G-CSF secretion, two-antibody sandwich immunoassay. In kind it is cell-based, human. Particulars: 48 hours, serum-containing media. Here is the method:
Supernatants from 5637 bladder carcinoma cells incubated with chemicals registering as positives in the G-CSF promoter/luciferase high throughput assay were assayed for secreted G-CSF protein using the two-antibody sandwich immunoassay (83). The G-CSF Assay kit manufactured by Oncogene Science, Inc. was used and the manufacturer's instructions were followed.
The levels of G-CSF in the cell supernatants were determined by a sandwich-antibody assay as described in above (FIG. 42).

Another assay deals with FRE cells. Kind of assay: MTT respiratory inhibition cytotoxicity assay versus luciferase induction in G21. It is filed as cell-based. The note with it: G21 reporter cells vs FRE cells, 6 hours. The text has this:
To determine cytotoxic concentrations of chemicals registering as positives in the high throughput luciferase assay the MTT cytotoxicity assay was employed (82). In this assay, a tetrazolium salt [3-(4,5-dimethylthiazol-2-yl)-2,5-diphenyl -tetrazolium bromide, MTT] is reduced to a colored formazon product by reducing enzymes present only in living metabolically active cells.
To address the question whether the induction of G-CSF, and GM-CSF transcription by the compound #542 was a specific effect or rather a phenomenon linked to a potential sensitivity of these promoters to stress exerted by toxic compounds, the concentration dependency of induction of luciferase activity in the reporter cell line G21 was compared to the concentration dependency of inhibition of respiration in FRE cells. Cells were seeded into 96 well microtiter plates (20,000 cells/well) and cultured overnight. Compound #542 was added at various concentrations and the cells were incubated for 6 hours. Luciferase activity was determined as described above. The MTT-colorimetric assay was carried out on identically treated samples of FRE cells. Induction of luciferase reporter signal (plain line) and on inhibition of respiration (dashed line) are plotted versus the concentrations of compound (FIG. 40). […]

For `Nc1nc(=O)n([C@H]2C[C@H](O)[C@@H](CO)O2)cc1Br` [#542], the “amount of G-CSF mRNA (S1 nuclease protection)” value with G-CSF mRNA (5637 cells, 18 hours) is recorded as “increased mRNA production”. For the same molecule, the “levels of endogenous G-CSF mRNA” value in the assay with G-CSF mRNA (method not stated at the place) is listed as “stimulate levels of endogenous G-CSF mRNA”. Moreover, the “amount of GM-CSF mRNA (S1 nuclease protection)” value with GM-CSF mRNA is “increased the amount of GM-CSF mRNA”. In addition, the G-CSF secretion entry in assay [1] is “increased G-CSF secretion”. In addition, in the assay on FRE cells, the “factor between ED50 for induction of luciferase activity and ED50 for inhibition of respiration” value is given as roughly 10 factor.
